No end group written: not given here.
Legend:
human CCA-156 HCC cells = assay: Binding of Cy5.5-labeled peptides to CCA-156 HCC cells, confocal fluorescence; assay type: cell-based; conditions: 5 μM, 5 min on ice
Description: HCC patient-derived cells (CCA-156) were generated from fresh, de novo tumor specimens obtained from patients undergoing liver transplant.
Fresh tissue was cut into ~1 mm^2 pieces in ice-cold DPBS. and 3-4 pieces were placed in one well of a 12-well plate. Minced tissue was cultured using Matrigel with growth media containing 10 μM ROCK inhibitor Y27632 (ATCC) and 5 μM TGF-β inhibitor (A83-01, Sigma-Aldrich) diluted to 8 mg/mL. An HCC cell line and a corresponding organoid were successfully generated. The cell line was denoted CCA-156 to reflect the specimen ID.
Approximately 10^3 CCA-156 cells were grown on the cover glass in a 24-well plate to ~90% confluence. The cells were washed with PBS twice and incubated with 5 μM of either Cy5.5-labeled peptide multimer or peptide monomer for 5 min on ice. The cells were then washed with PBS for 3X, fixed with 4% paraformaldehyde (PFA) in PBS for 15 min, washed with PBS for twice, then mounted on glass slides with ProLong Gold reagent containing DAPI (Invitrogen).

[1] = test system: orthotopic HCC PDX tumors; assay: In vivo competition for binding (blocking before Gd-DOTA-labeled peptide multimer), MR imaging; design: species or system mouse; conditions: unlabeled blocker given prior to labeled multimer; 0.5 hour post-injection
Description: In vivo competition for binding to GPC3, CD44, and EpCAM was evaluated by administering unlabeled peptide monomers prior to Gd-DOTA labeled peptide multimer. Single unlabeled peptide monomers (ALL*, WKG*, and HPD*) at a concentration of 1.5 mM in 100 μL of PBS, or a mixture of all three peptide monomers (multi-block) at a concentration of 1 mM in 100 μL of PBS each were administered 30 minutes prior to the Gd-DOTA-labeled peptide multimer, FIG. 14A. T1-weighted MR images were collected at the peak uptake time of 0.5 hour after the peptide multimer injection. The T/B ratio of MR intensity was calculated using regions of interest, and the adjacent non-tumor region with equal area of the tumor region was defined as the background.

| Substance | binding to cell surface of CCA-156 cells (fluorescence) (human CCA-156 HCC cells) | T/B ratio of Gd-DOTA-labeled peptide multimer after blocking [1] |
| --- | --- | --- |
| ALL*-Cy5.5: Cy5.5-labeled GPC3-specific peptide monomer ALLANHEELFQT (SEQ ID NO: 1) (also: Cy5.5 label, site not given here) | minimal signal | – |
| ALLANHEELFQT (GPC3-specific peptide) [ALL*] | – | reduced |
| HPD*-Cy5.5: Cy5.5-labeled EpCAM-specific peptide monomer HPDMFTRTHSHN (SEQ ID NO: 7) (also: Cy5.5 label, site not given here) | minimal signal | – |
| HPDMFTRTHSHN (EpCAM-specific peptide) [HPD*] | – | reduced |
| WKG*-Cy5.5: Cy5.5-labeled CD44-specific peptide monomer WKGWSYLWTQQA (SEQ ID NO: 6) (also: Cy5.5 label, site not given here) | minimal signal | – |
| WKGWSYLWTQQA (CD44-specific peptide) [WKG*] | – | reduced |

From patent publication US20260248969A1, “PEPTIDE MULTIMER PRODUCTS AND METHODS” (REGENTS OF THE UNIVERSITY OF MICHIGAN, priority 2023, published 2026)
